Measured values taken from patent US4160841A, “Heterocyclic derivatives of 1-(1,3-dioxolan-2-ylmethyl)-1H-imidazoles” (Janssen Pharmaceutica, N.V., priority 1977, dated 1979).
Like-named read-outs stand apart in the source and are kept apart here.

What was measured:
Candida albicans [1] = assay: Activity of compounds (I) against vaginal candidosis in rats; type: in vivo, Female Wistar rats; settings: 336 h, oral once a day for two days from day of infection, active at the 14th day after infection
Description: Experiment A: Activity of compounds (I) against vaginal candidosis in rats Female Wistar rats of ± 100 g body weight were used. They were ovariectomized and hysterectomized and after three weeks of recovery, 100 μg of oestradiol undecylate in sesame oil was given subcutaneously once a week for 3 consecutive weeks. The thus induced pseudooestrus was controlled by microscopic examination of vaginal smears. Food and water were left available ad libitum. The rats were infected intravaginally with 8.10^5 cells of Candida albicans, grown on Sabouraud broth for 48 hours at 37° C. and diluted with saline. The date of infection varied from day +25 to day +32 after surgical intervention, depending on the appearance of signs of induced pseudo-oestrus. The drugs under investigation were administered orally once a day for two days starting from the day of infection. For each experiment there were placebo treated controls. The results were assessed by taking vaginal smears with sterile swabs on several days after the infection. The swabs were put into Sabouraud broth in petri-dishes and incubated for 48 hours at 37° C. If no growth of Candida albicans occured, i.e., when the animals were negative at the end of the experiment, this was due to drug administration because it never happened in placebo treated controls. The tables I and II below give the lowest oral dose of the drug under investigation which was found active at the 14th day after infection.

Candida albicans [2] = assay: Activity of compounds (I) against crop candidosis in turkeys; type: in vivo; settings: medicated feed for 13 consecutive days from day of infection, crops of 50% of animals completely negative for Candida albicans; for Crop candidosis in Turkeys: ED50 in mg/kg of feed.: Table I
Description: Experiment B: Activity of compounds (I) against crop candidosis in turkeys Turkeys of 14 days old were infected in the crop with 4·10^6 Candida albicans cells, grown on Sabouraud broth for 48 hours at 37° C. and diluted with saline. The volume of the inoculum was 1 ml. The drug under investigation were premixed in 500 mg of lacton and thereafter admixed in 1000 g of meal without any additives. The concentration of the drug under investigation in the meal was expressed in mg/kg. The animals were given the medicated feed for 13 consecutive days starting on the day of infection. At the end of the experiment all animals were sacrificed. At autopsy the crops were removed, emptied and grinded in an ultra-turrax mixer in 15 ml of sterile saline. Colony counting was done on Sabouraud agar and the results given in Tables I and Ii represent the ED50, i.e., the dose of the drug whereby the crops of 50% of the animals were completely negative for Candida albicans.

[3] = Table II, read-out: Vagingal candidosis in rats: lowest effective dose
[4] = Table I, read-out: Vaginal candidosis in rats: lowest effective dose

Compound | minimal effective dose (Candida albicans [1]; [3]) | Crop candidosis in Turkeys: ED50 in mg/kg in feed (Candida albicans [2]; Table II) | minimal effective dose (Candida albicans [1]; [4]) | Crop candidosis in Turkeys: ED50 in mg/kg of feed. (Candida albicans [2])
Clc1ccc(C2(Cn3ccnc3)OCC(COc3cccc(-n4ccnc4)c3)O2)c(Cl)c1 (stereo not drawn) | 2.5 mg/kg |  |  | 
Clc1ccc(C2(Cn3cncn3)OCC(COc3ccc(-n4ccnc4)cc3)O2)c(Cl)c1 (stereo not drawn) | 1.25 mg/kg | 8 mg/kg in feed |  | 
Clc1ccc([C@@]2(Cn3ccnc3)OC[C@H](COc3ccc(-n4ccnc4)cc3)O2)c(Cl)c1 (relative stereo) |  |  | 1.25 mg/kg | 8 mg/kg of feed
Clc1ccc([C@@]2(Cn3ccnc3)OC[C@H](COc3ccc(-n4cncn4)cc3)O2)c(Cl)c1 (relative stereo) |  |  | 1.25 mg/kg | 16 mg/kg of feed
Clc1ccc([C@@]2(Cn3ccnc3)OC[C@H](COc3ccc(-n4cccc4)cc3)O2)c(Cl)c1 (relative stereo) |  |  | 2.5 mg/kg | 125 mg/kg of feed
Clc1ccc([C@@]2(Cn3ccnc3)OC[C@H](COc3ccc(-n4cccn4)cc3)O2)c(Cl)c1 (relative stereo) |  |  | 2.5 mg/kg | 16 mg/kg of feed
Cc1nccn1-c1ccc(OC[C@H]2CO[C@](Cn3ccnc3)(c3ccc(Cl)cc3Cl)O2)cc1 (relative stereo) |  |  | 10 mg/kg | 125 mg/kg of feed
Clc1ccc([C@@]2(Cn3ccnc3)OC[C@H](COc3ccc(-n4ccnc4-c4ccccc4)cc3)O2)c(Cl)c1 (relative stereo) |  |  | 5 mg/kg | 125 mg/kg of feed
Cc1n[nH]c(=O)n1-c1ccc(OC[C@H]2CO[C@](Cn3ccnc3)(c3ccc(Cl)cc3Cl)O2)cc1 (relative stereo) |  |  | < 10 mg/kg | 
CCCn1ncn(-c2ccc(OC[C@H]3CO[C@](Cn4ccnc4)(c4ccc(Cl)cc4Cl)O3)cc2)c1=O (relative stereo) |  |  | < 10 mg/kg | 
CC(C)n1ncn(-c2ccc(OC[C@H]3CO[C@](Cn4ccnc4)(c4ccc(Cl)cc4Cl)O3)cc2)c1=O (relative stereo) |  |  | < 10 mg/kg | 
Cc1nn(C)c(=O)n1-c1ccc(OC[C@H]2CO[C@](Cn3ccnc3)(c3ccc(Cl)cc3Cl)O2)cc1 (relative stereo) |  |  | 1.25 mg/kg | 
Cc1nn(C(C)C)c(=O)n1-c1ccc(OC[C@H]2CO[C@](Cn3ccnc3)(c3ccc(Cl)cc3Cl)O2)cc1 (relative stereo) |  |  | 5 mg/kg | 
CCn1ncn(-c2ccc(OC[C@H]3CO[C@](Cn4ccnc4)(c4ccc(Cl)cc4Cl)O3)cc2)c1=O (relative stereo) |  |  | 5 mg/kg | 31 mg/kg of feed
CCn1nc(C)n(-c2ccc(OC[C@H]3CO[C@](Cn4ccnc4)(c4ccc(Cl)cc4Cl)O3)cc2)c1=O (relative stereo) |  |  | 2.5 mg/kg | 
Sc1nnnn1-c1ccc(OC[C@H]2CO[C@](Cn3ccnc3)(c3ccc(Cl)cc3Cl)O2)cc1 (relative stereo) |  |  | 2.5 mg/kg | 
CSc1nncn1-c1ccc(OC[C@H]2CO[C@](Cn3ccnc3)(c3ccc(Cl)cc3Cl)O2)cc1 (relative stereo) |  |  | 10 mg/kg | 8 mg/kg of feed
CCSc1nccn1-c1ccc(OC[C@H]2CO[C@](Cn3ccnc3)(c3ccc(Cl)cc3Cl)O2)cc1 (relative stereo) |  |  | 5 mg/kg | 

Compound | minimal effective dose (Candida albicans [1]; [3]) | Crop candidosis in Turkeys: ED50 in mg/kg in feed (Candida albicans [2]; Table II) | minimal effective dose (Candida albicans [1]; [4]) | Crop candidosis in Turkeys: ED50 in mg/kg of feed. (Candida albicans [2])
CSc1nccn1-c1ccc(OC[C@H]2CO[C@](Cn3ccnc3)(c3ccc(Cl)cc3Cl)O2)cc1 (relative stereo) |  |  | 5 mg/kg | 31 mg/kg of feed
CCCSc1nccn1-c1ccc(OC[C@H]2CO[C@](Cn3ccnc3)(c3ccc(Cl)cc3Cl)O2)cc1 (relative stereo) |  |  | 5 mg/kg | 31 mg/kg of feed
CC(C)Sc1nccn1-c1ccc(OC[C@H]2CO[C@](Cn3ccnc3)(c3ccc(Cl)cc3Cl)O2)cc1 (relative stereo) |  |  |  | 31 mg/kg of feed
CSc1ncc(C)n1-c1ccc(OC[C@H]2CO[C@](Cn3ccnc3)(c3ccc(Cl)cc3Cl)O2)cc1 (relative stereo) |  |  |  | 31 mg/kg of feed
CSc1ncn(-c2ccc(OC[C@H]3CO[C@](Cn4ccnc4)(c4ccc(Cl)cc4Cl)O3)cc2)n1 (relative stereo) |  |  | 1.25 mg/kg | 16 mg/kg of feed
Clc1ccc([C@@]2(Cn3ccnc3)OC[C@H](COc3ccc(-n4ncnc4-c4ccccc4)cc3)O2)c(Cl)c1 (relative stereo) |  |  | 10 mg/kg | 
CSc1nc(C)n(-c2ccc(OC[C@H]3CO[C@](Cn4ccnc4)(c4ccc(Cl)cc4Cl)O3)cc2)n1 (relative stereo) |  |  | 2.5 mg/kg | 
Cc1ccn(-c2ccc(OC[C@H]3CO[C@](Cn4ccnc4)(c4ccc(Cl)cc4Cl)O3)cc2)n1 (relative stereo) |  |  | 2.5 mg/kg | 
CSc1nnc(C)n1-c1ccc(OC[C@H]2CO[C@](Cn3ccnc3)(c3ccc(Cl)cc3Cl)O2)cc1 (relative stereo) |  |  | 2.5 mg/kg | 
Cc1ncnn1-c1ccc(OC[C@H]2CO[C@](Cn3ccnc3)(c3ccc(Cl)cc3Cl)O2)cc1 (relative stereo) |  |  | 1.25 mg/kg | 8 mg/kg of feed
CS(=O)(=O)c1nccn1-c1ccc(OC[C@H]2CO[C@](Cn3ccnc3)(c3ccc(Cl)cc3Cl)O2)cc1 (relative stereo) |  |  | 5 mg/kg | 
CCOc1nncn1-c1ccc(OC[C@H]2CO[C@](Cn3ccnc3)(c3ccc(Cl)cc3Cl)O2)cc1 (relative stereo) |  |  | 2.5 mg/kg | 31 mg/kg of feed
CCc1ncnn1-c1ccc(OC[C@H]2CO[C@](Cn3ccnc3)(c3ccc(Cl)cc3Cl)O2)cc1 (relative stereo) |  |  | 5 mg/kg | 8 mg/kg of feed
C[S+]([O-])c1nncn1-c1ccc(OC[C@H]2CO[C@](Cn3ccnc3)(c3ccc(Cl)cc3Cl)O2)cc1 (relative stereo) |  |  | 2.5 mg/kg | 
Cc1nnc([S+](C)[O-])n1-c1ccc(OC[C@H]2CO[C@](Cn3ccnc3)(c3ccc(Cl)cc3Cl)O2)cc1 (relative stereo) |  |  | 10 mg/kg | 16 mg/kg of feed
Clc1ccc([C@@]2(Cn3ccnc3)OC[C@H](COc3ccc(-n4cnnn4)cc3)O2)c(Cl)c1 (relative stereo) |  |  |  | 31 mg/kg of feed
COc1ccc([C@@]2(Cn3ccnc3)OC[C@H](COc3ccc(-n4ccnc4)cc3)O2)cc1 (relative stereo) | 5 mg/kg |  |  | 
